Blank lines part the entries; values can stand above or below the compound they belong to.
Legend:
[1] = tested on: T1, extracellular β-glucosidase; assay: fluorometric 4-MU release, Michaelis-Menten nonlinear regression; format: biochemical, Sporothrix schenckii; conditions: 100 mM sodium citrate pH 5, 45 °C; substrate 0–15 μM
T1 construct: gene beta-D-glucoside glucohydrolase; native, secreted, purified from culture filtrate of cellulose-grown mycelial form

[2] = tested on: T1, extracellular β-glucosidase; assay: p-nitrophenol release at […] nm, Michaelis-Menten nonlinear regression; format: biochemical, Sporothrix schenckii; conditions: 100 mM sodium citrate pH 5, 45 °C; substrate 0–17.5 mM (below the fitted Km)
[3] = target: extracellular β-glucosidase from Sporothrix schenckii (Sporothrix schenckii); assay: SEC; Sephacryl S200-HR column (1 x 119 cm), 50 mM phosphate buffer pH 7, 4 °C, calibrated with standard proteins; native mass compared with the subunit mass from 7% SDS/PAGE
[4] = target: extracellular β-glucosidase from Sporothrix schenckii (Sporothrix schenckii); assay: zymogram after SDS/PAGE (semidenaturing) and native PAGE; 7% gels run at 4 °C, sample incubated 30 min at 37 °C in sample buffer; activity shown with 4-MUG; CFCF after 3 days on cellulose

Compound: Cc1cc(=O)oc2cc(O[C@@H]3O[C@H](CO)[C@@H](O)[C@H](O)[C@H]3O)ccc12 [4-methylumbelliferyl β-D-glucopyranoside]
Km [1]: 12 ± 1 µM

Compound: O=[N+]([O-])c1ccc(O[C@@H]2O[C@H](CO)[C@@H](O)[C@H](O)[C@H]2O)cc1 [p-nitrophenyl β-D-glucopyranoside]
Km [2]: 44.1 ± 6.11 mM

stoichiometry N [3]: 2
stoichiometry N [4]: 2
Compound: extracellular β-glucosidase from Sporothrix schenckii (enzyme)

From paper PMC5095144, “Purification and characterization of an extracellular β‐glucosidase from Sporothrix schenckii” (FEBS Open Bio, 2016)
